# Experimental data: US11844801B2, “Oral compositions of MK2 pathway inhibitor for treatment of immune conditions” (priority 2020, dated 2023)
# Key:
# [1] = Phase 2a ATI-450 plus MTX in moderate to severe rheumatoid arthritis: clinical activity (DAS28-CRP, ACR20/50/70, joint counts, hsCRP); assay type: in vivo, human; conditions: 50 mg BID plus MTX
# [2] = system: endogenous cytokines (TNF-α, IL-6, IL-8, MIP1β, IL-1RA); assay: Phase 2a RA study: endogenous plasma cytokines; assay type: in vivo, human; conditions: 50 mg BID
# Description: Pharmacodynamics. […] For the endogenous cytokine levels (e.g., TNF-α, IL-1β, IL-6, IL-8, IFNγ, IL-17, IL-18, IL-10, IL-1α, and IL-1RA), 1 mL of serum will be drawn at each identified time point. […] Samples were evaluated at trough drug levels through day 84 and the last point is near Cmax following the final dose on day 84. The horizontal line ( ? ) in FIG. 19A depicts TNF-α levels in blood from normal volunteer subjects that were evaluated in the same assay. […] The horizontal line ( ? ) in FIG. 19B represents IL-1RA levels in healthy subjects. […] Plasma levels of three proinflammatory cytokines (TNF-α (FIG. 20A), IL-6 (FIG. 20C), IL-8 (FIG. 20B)), from a 13-plex tested are shown in this Figure, along with the chemokine MIP1β (FIG. 20D). The data are expressed as median % change relative to pre-dosing for drug treated patients. […] The horizontal line ( ? ) describes cytokine/chemokine level in plasma from normal healthy volunteer subjects.
# [3] = system: regulatory T cells (CD45+ CD3+ CD4+ Foxp3+); assay: Murine collagen-induced arthritis model, T regulatory cells in popliteal lymph nodes; assay type: in vivo, mouse; conditions: 1000 ppm chow from day 18, murine CIA model
# Description: In this model DBA/1 mice (12/group) were immunized with bovine collagen/CFA to induce arthritis. […] At day 21, mice were boosted with bovine collagen/CFA, and at day 35 the study was terminated. Popliteal lymph nodes were dissected from mice, cleaned of any trace fat, mechanically dissociated and filtered through 70 micron cell strainers. Live lymphocytes were counted using a Moxi GO II cell counter (Orflo). One million lymphocytes were plated, treated with Fc block, and stained with antibodies targeting surface receptors (including CD45, CD3, CD4) along with a fixable live/dead dye. Cells were fixed/permeabilized (eBioscience Transcription Factor Staining kit) and stained with anti-Foxp3 antibody. The cells were collected via flow cytometry analysis on an Attune NxT instrument. T-regulatory cells were gated as lymphocyte-sized, live, CD45+ CD3+ CD4+ Foxp3+ cells.
# IL-6 [4] = assay: Poly(I:C) stimulated IL-6 production in human whole blood; assay type: cell-based; conditions: 100 ug/mL, 24 hr
# Description: Human whole blood assays were performed as described above with the exceptions listed below. […] Compounds were serially diluted in 100% DMSO (Sigma-Aldrich, D2650) followed by a 25× dilution into DMEM/10% FBS (Gibco, 11965/26140). After the one-hour incubation with the compounds or vehicle, 20 μL of poly(I:C) (InvivoGen, HMW, tlrl-pic), in DPBS (Gibco, 14190-136) was added for a final concentration of 100 μg/mL to each well except for the no stimulus wells. After twenty-four hours of incubation with poly(I:C), plasma was harvested and assayed for IP10, IFNγ, IL-6, IL-8 and TNF-α using Meso Scale Discovery Technology V-plex human cytokine kits according to the kit protocol.
# [5] = system: TNF-α, IL-1β, IL-6 and IL-8; assay: R848 (TLR7/TLR8) stimulated cytokines and chemokines in human whole blood; assay type: cell-based; conditions: 5 h, R848 0.5 μg/mL, five hours
# Description: (§1) Human whole blood assays were performed as described above with the exceptions listed below. […] Compounds were serially diluted in 100% DMSO (Sigma-Aldrich, D2650) followed by a 10× dilution into RPMI (Gibco, 11875). After the one-hour incubation with the compounds or vehicle, 2 μL of R848 (InvivoGen, tlrl-r848) in RPMI (Gibco, 11875) was added for a final concentration of 0.5 μg/mL to each well except for the no stimulus wells. After five hours of incubation with R848, plasma was harvested and assayed for TNF-α, IL-1β, IL-6 and IL-8 using Meso Scale Discovery Technology V-plex human cytokine kits according to the kit protocol.
# IL-6 [6] = assay: R848 stimulated IL-6 production in human whole blood; assay type: cell-based; conditions: R848, 0.5 ug/mL, 5 hr
# Description: as §1
# TNF-α [7] = assay: Porcine whole blood LPS stimulated TNF-α assay; assay type: cell-based; conditions: Sus scrofa, Pig Whole Blood, 10 µg/mL, 4 hr
# Description: Porcine LPS stimulated TNF-α Assay—Porcine whole blood was collected into heparinized vacutainers then transferred into conical tubes and shipped overnight on wet ice. Porcine whole blood was aliquoted (160 μL/well) into round bottom 96 well tissue culture plates. Compounds were serially diluted in 100% DMSO (Sigma-Aldrich, D2650) followed by a 100× dilution into RPMI/10% FBS (Gibco, 11875/26140). The diluted compounds were then added to each plate in duplicate 20 μL aliquots for final concentrations ranging from 10 μM to 1 pM. DMSO final concentration was 0.1%. After a one-hour incubation at 37° C. with 5% CO2, 20 μL of LPS (Sigma-Aldrich, L2630), in RPMI/10% FBS (Gibco, 11875/26140) was added for a final concentration of 10 μg/mL to each well except for the no stimulus wells. After four hours of incubation with LPS, plasma was harvested by centrifugation at 1,800×g for five minutes. The plasmas were assayed for TNF-α levels using a porcine specific TNF-α Quantikine ELISA kit (R&D, PTA00) according to the kit protocol.
# TNF-α [8] = assay: TLR2 ligand (Pam3) or LPS induced TNF-α in peripheral blood mononuclear cells; assay type: cell-based; conditions: 10-10,000 nM
# Description: LPS or Pam3 were then added to the designated wells for a final concentration of 100 ng/mL for both (or medium for unstimulated control). After 30 min MSU was added to the designated wells for final concentration of 100 μg/mL (or medium for no-MSU control). After a 6-hour incubation, plates were centrifuged at 500×g for 5 min, and medium was collected from each well for assay. Released TNF-α was measured using Meso Scale Discovery technology, an ELISA-like format with capture and detection antibodies, but with a final readout using electrochemiluminescence.
# TNF-α, IL-6, and IL-8 = assay: Ex vivo IL-1β-induced TNF-α, IL-6 and IL-8 in blood of dosed healthy subjects; conditions: human
# Description: Methods: Safety, pharmacokinetics (PK) and pharmacodynamics (PD) were assessed in two cohorts of subjects in a randomized, observer-blind, placebo-controlled study in male and female healthy subjects aged 18-55 (n=77). The study consisted of twenty (20) subjects enrolled into 2 cohorts. […] The final dose was administered in the morning on Day 7. Blood samples were obtained Day 1—before dosing, Day 1—4 hours after dosing and Day 1—12 hours after dosing and Day 7—before dosing, Day 7—4 hours after dosing, day 7—12 hour after dosing and Day 7—24 hours after dosing for each subject.
smiles,measurement,setting,value
"Cc1cnc(-c2ccnc(C(C)(C)O)n2)cc1-n1c(C)cc(OCc2ncc(F)cc2F)c(Cl)c1=O (single isomer, unassigned) [ATI-450, 3-chloro-4-((3,5-difluoropyridin-2-yl)methoxy)-2′-(2-(2-hydroxypropan-2-yl)pyrimidin-4-yl)-5′,6-dimethyl-2H-[1,4′-bipyridin]-2-one]",swollen and tender joint count over time,[1]; 84 days,sustained decrease in swollen joint count and tender joint count
same,DAS28-CRP change from baseline over time,[1]; through day 84,rapid and sustained onset of efficacy
same,hsCRP change from baseline over time,[1]; through day 84,rapid and sustained reduction in hsCRP
same,median reduction from baseline in hsCRP,[1]; throughout the 12 weeks,> 40%
same,mean change from baseline in DAS28-CRP (reduction),[1]; week 12,2.0
same,ACR20 response,"[1]; week 12, 15 subjects",60%
same,ACR50 response,"[1]; week 12, 15 subjects",33%
same,ACR70 response,"[1]; week 12, 15 subjects",20%
same,proportion of subjects with DAS28-CRP <2.6 (remission),"[1]; week 12, 15 subjects",20%
same,proportion of subjects with DAS28-CRP ≤ 3.2 (low disease activity or remission),"[1]; week 12, 15 subjects",40%
same,"median concentrations of endogenous TNF-α, IL-6, IL-8, and MIP1β",[2]; 12-week period,marked and sustained inhibition
same,endogenous plasma IL-1RA,[2]; 12 weeks,not impacted by ATI-450
same,"endogenous plasma IL-6, IL-8, and MIP1β",[2]; 12 weeks,reduced at week 4 and this reduction was maintained through the 12 weeks
same,endogenous plasma TNF-α,[2]; trough,rapidly reduced by 4 weeks of dosing
same,number of regulatory T cells,[3],significantly increased the number of regulatory T cells
same,IC50,IL-6 [4],13.2 ± 12.8 nM
same,IC50,[5],~100 nM
same,IC50,IL-6 [6],79.2 ± 17.2 nM
same,IC50,TNF-α [7],7.4 nM
same,TLR2 ligand induced TNF-α production,TNF-α [8],dose dependently inhibits
same,"ex vivo IL-1β-induced TNF-α, IL-6, and IL-8","TNF-α, IL-6, and IL-8",potently inhibits
